Laboratory results published in the CheMixHub viscosity set.
Where “and” joins values, the source holds several entries; their conditions need not be identical. Equal entries are not always repeated.

Assay: xn = mol fraction of the nth substance listed

CCCCOC(C)=O + CCCO
viscosity [mPa·s], 101 kPa
Conditions	298.15 K	303.15 K	308.15 K	313.15 K
x1 = 0.0995	1.689	1.479	1.311	1.19
x1 = 0.1003	–	1.296	–	–
x1 = 0.198	–	1.062	–	–
x1 = 0.1987	1.483	1.293	1.148	1.048
x1 = 0.2976	1.308	1.148	1.025	0.942
x1 = 0.3002	–	0.912	–	–
x1 = 0.4004	–	0.821	–	–
x1 = 0.4009	1.151	1.011	0.915	0.848
x1 = 0.4989	1.023	0.903	0.822	0.77
x1 = 0.5001	–	0.755	–	–
x1 = 0.5969	0.921	0.836	0.76	0.713
x1 = 0.6002	–	0.705	–	–
x1 = 0.6993	0.833	0.766	0.7	0.67
x1 = 0.7001	–	0.674	–	–
x1 = 0.7999	–	0.654	–	–
x1 = 0.8008	0.767	0.717	0.666	0.631
x1 = 0.8932	0.717	0.68	0.636	0.61
x1 = 0.9002	–	0.641	–	–

CCCCOC(C)=O + CCCCCCCCCC
298.15 K, 101.3 kPa
Conditions	viscosity [mPa·s]
x1 = 0.3547	0.7515
x1 = 0.4366	0.7352
x1 = 0.5375	0.7168
x1 = 0.6473	0.7018
x1 = 0.7119	0.6958
x1 = 0.8212	0.6854
x1 = 0.9331	0.6851

CC(C)c1ccccc1 + COC(=O)c1ccccc1
viscosity [mPa·s], 101 kPa
Conditions	x2 = 0.1127	x2 = 0.2209	x2 = 0.3251	x2 = 0.429	x2 = 0.5302	x2 = 0.6213	x2 = 0.7199	x2 = 0.8144	x2 = 0.9082
303.15 K	0.729	0.795	0.865	0.94	1.029	1.128	1.244	1.364	1.502
313.15 K	0.649	0.694	0.75	0.819	0.883	0.961	1.044	1.132	1.235

NC(=O)C[C@H](N)C(=O)O + O
viscosity, 101 kPa
Conditions	x1 = 0.00045	x1 = 0.0009	x1 = 0.001	x1 = 0.00135	x1 = 0.001798	x1 = 0.002247	x1 = 0.002695	x1 = 0.003
293.15 K	1.01 mPa·s	1.018 mPa·s	1.015 mPa·s	1.025 mPa·s	1.033 mPa·s	1.041 mPa·s	1.049 mPa·s	1.033 mPa·s
298.15 K	0.8972 mPa·s	0.9037 mPa·s	0.9105 mPa·s	0.9104 mPa·s	0.917 mPa·s	0.9236 mPa·s	0.9301 mPa·s	0.9306 mPa·s
303.15 K	0.8033 mPa·s	0.8089 mPa·s	0.8147 mPa·s	0.8146 mPa·s	0.8202 mPa·s	0.8258 mPa·s	0.8314 mPa·s	0.8318 mPa·s and 0.8318 mPa·s
308.15 K	0.7243 mPa·s	0.7292 mPa·s	0.734 mPa·s and 0.734 mPa·s	0.734 mPa·s	0.7388 mPa·s	0.7436 mPa·s	0.7484 mPa·s	0.7488 mPa·s
313.15 K	0.6573 mPa·s	0.6615 mPa·s	0.6657 mPa·s	0.6657 mPa·s	0.6699 mPa·s	0.674 mPa·s	0.6782 mPa·s	0.6785 mPa·s
318.15 K	0.6013 mPa·s	0.605 mPa·s	0.6087 mPa·s	0.6087 mPa·s	0.6123 mPa·s	0.6159 mPa·s	0.6195 mPa·s	0.6198 mPa·s

N#CCCl + ClC(Cl)(Cl)Cl
viscosity [mPa·s], 101 kPa
Conditions	293.15 K	298.15 K	303.15 K	313.15 K	323.15 K
x1 = 0.014	0.983	0.907	0.844	0.749	0.672
x1 = 0.087	0.939	0.867	0.803	0.71	0.633
x1 = 0.222	0.914	0.841	0.78	0.688	0.615

CCCN + COCCO
viscosity [mPa·s]
Conditions	293.15 K	298.15 K
101 kPa, x2 = 0.0294	–	0.387
101 kPa, x2 = 0.0662	–	0.415
101 kPa, x2 = 0.0845	–	0.431
101 kPa, x2 = 0.1053	–	0.448
101 kPa, x2 = 0.1391	–	0.482
101 kPa, x2 = 0.1936	–	0.54
101 kPa, x2 = 0.2423	–	0.6
101 kPa, x2 = 0.2765	–	0.644
101 kPa, x2 = 0.321	–	0.708
101 kPa, x2 = 0.3635	–	0.775
101 kPa, x2 = 0.3989	–	0.835
101 kPa, x2 = 0.4418	–	0.909
101 kPa, x2 = 0.4845	–	0.974
101 kPa, x2 = 0.5165	–	1.031
101 kPa, x2 = 0.5599	–	1.106
101 kPa, x2 = 0.5942	–	1.166
101 kPa, x2 = 0.6575	–	1.265
101 kPa, x2 = 0.6877	–	1.309
101 kPa, x2 = 0.7452	–	1.384
101 kPa, x2 = 0.8042	–	1.442
101 kPa, x2 = 0.8424	–	1.47
101 kPa, x2 = 0.8852	–	1.495
101 kPa, x2 = 0.9064	–	1.505
101 kPa, x2 = 0.9584	–	1.522
101 kPa, x2 = 0.9794	–	1.527
101.3 kPa, x2 = 0.0502	0.396	0.38
101.3 kPa, x2 = 0.1009	0.435	0.415
101.3 kPa, x2 = 0.1501	0.479	0.453
101.3 kPa, x2 = 0.2002	0.533	0.501
101.3 kPa, x2 = 0.2504	0.599	0.559
101.3 kPa, x2 = 0.3	0.674	0.627
101.3 kPa, x2 = 0.3498	0.759	0.703
101.3 kPa, x2 = 0.3997	0.852	0.785
101.3 kPa, x2 = 0.4499	0.95	0.87
101.3 kPa, x2 = 0.4998	1.05	0.955
101.3 kPa, x2 = 0.5504	1.149	1.039
101.3 kPa, x2 = 0.6	1.241	1.116
101.3 kPa, x2 = 0.6498	1.325	1.186
101.3 kPa, x2 = 0.6999	1.4	1.249
101.3 kPa, x2 = 0.7495	1.462	1.304
101.3 kPa, x2 = 0.8	1.515	1.354
101.3 kPa, x2 = 0.8511	1.561	1.4
101.3 kPa, x2 = 0.8999	1.601	1.443
101.3 kPa, x2 = 0.9499	1.647	1.49
